{"source": "patent US20220160669A1", "about": "“PARENTERAL NUTRITION FORMULATION” (BAXTER INTERNATIONAL INC., priority 2020, published 2022)", "key": {"Il-10": {"tested_on": "Il-10", "test": "Serum cytokine quantification, Il-10", "type": "in vivo, pig", "source_text": "(§1) Neonatal Yorkshire/Landrace cross bred piglets (n=72; six at a time from the same litter, repeating 12 times) were obtained from Oak Hill Genetics (Ewing, Ill.) after 48-hour sow reared for colostrum consumption and iron supplementation.\nThe influence of the respective supplements on inflammation was investigated by determining Il-6, Il-1beta, TNF-alpha and Il-10 serum levels in the intervention groups compared to EN and PN according to Milo et al., Effects of Short-Chain Fatty Acid-Supplemented Total Parenteral Nutrition on Intestinal Pro-Inflammatory Cytokine Abundance. Digestive Diseases and Sciences 2002; 47:2049-2055. Jejunal and ileal samples were homogenized in double-distilled water, and the Bradford protein assay (Biorad, Hercules, Calif., USA) was performed on homogenate and plasma samples. Protein (30 μg) from each sample was denatured by boiling, and proteins were separated by size using 12.5% sodium dodecyl sulfate polyacrylamide gel electrophoresis. Separated proteins were transferred to polyvinylidene difluoride membranes (Biorad) using a semidry transfer apparatus (Biorad). Western blot analysis for TNF-alpha, IL-1beta, Il-10 and IL-6 was performed using porcine-specific polyclonal antibodies (Endogen, Woburn, Mass., USA). A mouse anti-pig monoclonal TNF-alpha antibody was used to detect TNF-alpha ([…]). Rabbit anti-pig polyclonal antibodies specific for IL-1beta and IL-6 were used to detect IL-1beta (17,500 kDa), Il-10 (18,600 kDa) and IL-6 (26,000 kDa). Membranes were developed using the Opti-4CN kit (Biorad) and photographed using the FOTO/Analyst Image Analysis System (Fotodyne, Inc., Hartland, Wis., USA). Densitometry of TNF-alpha, IL-1beta, IL-6, and Il-10 was performed using Collage Image Analysis Software 4.0 (Fotodyne, Inc.). Results are shown in FIG. 15 (Il-6), FIG. 16 (Illbeta), FIG. 17 (TNF-alpha) and FIG. 18 (Il-10)."}, "[1]": {"tested_on": "Neonatal Yorkshire/Landrace cross bred piglets", "test": "Brain structure development by MRI", "type": "in vivo, pig", "design": "key: + denotes a positive effect (compared to standard PN); ++ a very positive effect; − denotes no difference", "conditions": "compared to standard PN", "source_text": "On study day 9, the piglets were submitted to Magnetic Resonance Imaging (MRI) using an Agilent 9.4 Tesla MRI system (Santa Clara, Calif.) to assess brain structural development and body composition. Heart rate and respiration were monitored during the entire MRI scan. For anatomic assessment of the brain targeting the hippocampus, images were obtained using a 3D T1-weighted magnetization prepared gradient-echo sequence: repetition time=1,900 ms; echo time=2.48 ms; inversion time=900 ms, flip angle=9°, matrix=256×256 (interpolated to 512×512), slice thickness=1.0 mm. For body composition assessment, a multi-slice, spin-echo technique was used to image the truncal area (longissimus fat/muscle): echo time=20 ms; recovery time=400 ms with four-signal averaging. […] Total scanning time was approximately 60 minutes to include both brain and body composition scanning. The MRI images were analyzed using OsiriX (Bernex, Switzerland). […] The average body weight and abdominal girth of the piglets in the Study Groups was also monitored."}, "sIgA": {"tested_on": "sIgA", "test": "IgA quantification (jejunal sIgA, ELISA)", "type": "in vivo, pig", "design": "key to IgA: + denotes a positive effect (compared to standard PN); ++ a very positive effect; − denotes no difference", "conditions": "for IgA: compared to standard PN; for Jejunal sIgA Concentration: compared to standard PN (s-PN)", "source_text": "as §1\nSmall intestine probes for IgA level determination were obtained by flushing the small intestine with chilled HBSS (Hank's Balanced Salt Solution). Nasal and bronchoalveolar washings for measurement of respiratory tract IgA levels were obtained by lavage with 1 mL phosphate-buffered saline solution under anesthesia. The washings were stored in a −80° C. freezer until IgA analysis. IgA was measured in small intestinal and respiratory tract washings by sandwich enzyme-linked immunosorbent assay using a polyclonal goat anti-mouse IgA (Sigma) to coat the plate, a purified mouse IgA (Zymed Laboratories, San Francisco, Calif.) as the standard, and a horseradish peroxidase-conjugated goat anti-mouse IgA (Sigma)."}, "[2]": {"test": "Stability of butyrate derivative compositions (sterilization, shelf-life)", "conditions": "for free butyric acid released during the sterilization of the bags: lipid chamber, GC-FID"}}, "data": [{"compound": "CCCC(=O)OCC(COC(=O)CCC)OC(=O)CCC", "note": "[Tributyrin]", "values": [{"measurement": "serum levels of Il-10 (FIG. 18)", "setting": "Il-10; 10 mmol/L TPN (Groups A, C, D)", "value": "lower than in the standard PN Group P"}, {"measurement": "serum levels of Il-10 (FIG. 18)", "setting": "Il-10; 30 mmol/L TPN (Group B)", "value": "lower than in the standard PN Group P"}, {"measurement": "Brain", "setting": "[1]; 10 mmol/L in PN", "value": "−"}, {"measurement": "Brain", "setting": "[1]; 30 mmol/L in PN", "value": "−"}, {"measurement": "IgA", "setting": "sIgA; 10 mmol/L in PN", "value": "++"}, {"measurement": "Jejunal sIgA Concentration", "setting": "sIgA; 10 mmol/L", "value": "++^5 (++ indicates P < 0.05)"}, {"measurement": "IgA", "setting": "sIgA; 30 mmol/L in PN", "value": "++"}, {"measurement": "Jejunal sIgA Concentration", "setting": "sIgA; 30 mmol/L", "value": "++^5 (++ indicates P < 0.05)"}, {"measurement": "free butyric acid released during the sterilization of the bags", "setting": "[2]", "value": "only very limited amounts"}]}, {"compound": "L-arginine, butanoate (3:4) [Arginine butyrate]", "values": [{"measurement": "serum levels of Il-10 (FIG. 18)", "setting": "Il-10; 10 mmol/L TPN (Groups A, C, D)", "value": "lower than in the standard PN Group P"}, {"measurement": "Brain", "setting": "[1]; 10 mmol/L in PN", "value": "−"}, {"measurement": "Jejunal sIgA Concentration", "setting": "sIgA; 10 mmol/L", "value": "+++^3 (+++ indicate P < 0.01)"}, {"measurement": "stable shelf-life", "setting": "[2]; 25° C. and 40% relative humidity (RH), in an amino acid formulation", "value": "at least 12 months"}, {"measurement": "stability during production and sterilization", "setting": "[2]; amino acid chamber / amino acid formulation", "value": "stable during production, sterilization"}, {"measurement": "concentration at which aqueous composition is producible and stable", "setting": "[2]; aqueous arginine butyrate composition", "value": "up to 5500 mg/L"}]}, {"compound": "CCCCCCCCCCCCCCCC(=O)OCC(COC(=O)CCC)OC(=O)CCCCCCCCCCCCCCC", "note": "(stereo not shown) [1,2-Dipalmitoyl 3-butyryl glycerol]", "values": [{"measurement": "serum levels of Il-10 (FIG. 18)", "setting": "Il-10; 10 mmol/L TPN (Groups A, C, D)", "value": "almost or about as low"}, {"measurement": "Brain", "setting": "[1]; 10 mmol/L in PN", "value": "−"}, {"measurement": "IgA", "setting": "sIgA; 10 mmol/L in PN", "value": "++"}, {"measurement": "free butyric acid released during the sterilization of the bags", "setting": "[2]", "value": "only very limited amounts"}]}]}
